# Source: EP4455142A1, “NOVEL INHIBITOR OF QPCTL AND/OR QC” (Scenic Immunology B.V., priority 2023, dated 2024)
# What was measured:
# [1] = Microsomal stability, dog (DLM); assay type: in vitro ADME; settings: liver microsomes; (beagle) dog microsomes, 0.5 mg protein/mL, 1 µM test compound
# Protocol: (§1) In order to assess metabolic stability of test compounds, commercially acquired CD-1 mouse liver microsome preparations were incubated in 100 µL at a final concentration of 0.5 mg protein/mL, 1 µM test compound, 0.99% methanol and 0.01% DMSO, after a 10 minute pre-incubation at 37°C and addition of 0.1 volumes 10 U/mL NADPH in 10 mM MgCl2. Reactions were stopped by addition of 300 µL cold acetonitrile containing internal standards at t = 0, 5, 10, 20, 30, and 60 minutes. Samples were submitted to LC-MS/MS analysis subsequently and the slope of linear regression of time versus In(% Remaining concentration) was derived to calculate t½ as t½= In(2) /(-Slope). Then Clint(mic) and Clint(liver) were calculated as follows: CLint(mk) = (0.693)/(In vitro T1/2) · (1)/(mg/mL microsomal protein in reaction system) [formula] CLint(liver) = CLint(mic) · (mg microsomes)/(g liver) · (g liver)/(kg body weight) [formula]
# (§2) The same procedure was performed for human microsomes, SD rat microsomes and (beagle) dog microsomes.
# Where 45 mg microsomal protein/g liver and 32 g liver/kg dog bodyweight were used as standardized parameters for […].
# [2] = tested on: pyroglutamylated CD47; experiment: Assay 3 - cell-based potency assay (pyroglutamylation in live cells, total CD47/pE-CD47 dual staining, FACS); design: species or system human; settings: IC50 of CC2C6 signal, KBM7 cells, 72 hours incubation
# Protocol: Cells were spun for 4 minutes at 1500 rpm and washed once with PBS / 0.5% BSA. Cells were spun down again and the supernatant was removed and incubated in 100 uL antibody staining solution (PBS / 0.5% BSA / 0.1 µg/mL DAPI (4',6-diamidino-2-phenylindole, ThermoFisher Scientific) and a mixture of 1:500 FITC-conjugated anti-human CD47 clone 2D3, which recognizes total CD47 irrespective of its pyroglutamylation state, and 1:500 Alexa647-conjugated anti-human CD47 clone CC2C6, which specifically detects pyroglutamylated CD47) for 2 hours at 4°C. Next, the cells were spun down and washed twice with 2 x 150 µL PBS / 0.5% BSA to remove unbound antibody. Cells were again spun down and taken up in 300 µL FACS buffer before analysis on a Celesta FACS machine (BD Biosciences).
# KBM7 cells (Kotecki et al., 1999) were infected with lentivirus produced by transfecting pSCNC-LentiCRISPR-QPCTL or pSCNC-LentiCRISPR-CD47 into HEK-293T cells according to standard protocols. After 24 hours incubation, cells were selected with puromycin (Invivogen, 1 µg/mL) for 48 hours. Cells were stained for total CD47 and pE-CD47 and QPCTL k.o. cells were sorted out as negative for pE-CD47, and CD47 k.o. cells as negative for total CD47, using a FACSAria III and FACS Diva software (BD Biosciences).
# In order to test compounds for their effect on pyroglutamylation in live cells, 25000 KBM7 cells per well were seeded in a 96-well U-bottom plate in 150 µl IMDM / 10% FCS / 1% Pen / Strep medium and a 10-point 2-fold dilution range of test compounds. After 72 hours incubation at 37°C, 5% COz, cells were stained for total CD47 and pE-CD47 and analysed on a BD Celesta using FACS Diva software (BD Biosciences). Cells gated for DAPI negativity were recorded and the median fluorescence intensity (MFI) of each sample was transformed to linearly scale between the MFI's of wildtype and CD47 knockout cells (in case of the 2D3 antibody) and the wildtype and QPCTL knockout cells (in case of the CC2C6 antibody). ICso's were calculated by 3 parameter logistic regression of the CC2C6 signal vs. compound concentration, where the top of the sigmoidal curve was fixed at 1, using R and the drc package (http://www.r-project.org, https://cran.r-project.org/web/packages/drc/index.html).
# [3] = Kinetic solubility; assay type: physicochemical; settings: aqueous buffer; 50 mM phosphate buffer (pH 7.4), 24 hours at room temperature
# Protocol: To assess the solubility of test compounds 10 µL of a 10 mM solution in DMSO was added to the lower chamber of a whatman miniuniprep (PTFE Filter Media with Polypropylene Housing) vial. 490 µL of 50 mM phosphate buffer (pH 7.4) was added to the lower chamber, the samples were vortexed for at least two minutes and then shaken on a shaker for 24 hours at room temperature at the speed of 880 rpm. The samples were then centrifuged for 20 minutes at 4000 rpm, compressed and the filtrates were injected into a HPLC-UV and LC-MS/MS system to calculate the concentration compared to the standard curve using a ACQUITY UPLC BEH C18 1.7 µm 2.1 * 50 mm column.
# [4] = Microsomal stability, rat (RLM); assay type: in vitro ADME; settings: liver microsomes; SD rat microsomes, 0.5 mg protein/mL, 1 µM test compound
# Protocol: as §1, §2
# Where 45 mg microsomal protein/g liver and 40 g liver/kg rat bodyweight were used as standardized parameters for rat microsomes.
# [5] = target: T1, recombinant QC enzyme (Homo sapiens, UniProt Q16769); experiment: Assay 2 - QC potency, fluorescent enzymatic assay (H-Gln-AMC, coupled pGAPase detection); assay type: biochemical; settings: 1 hour at 37°C
# T1 construct: bacterial expression of residues 33-361 of uniprot ID Q16769, fused to a His tag; His tag (cleaved yes); made in house
# T1 sequence (Q16769 33-361): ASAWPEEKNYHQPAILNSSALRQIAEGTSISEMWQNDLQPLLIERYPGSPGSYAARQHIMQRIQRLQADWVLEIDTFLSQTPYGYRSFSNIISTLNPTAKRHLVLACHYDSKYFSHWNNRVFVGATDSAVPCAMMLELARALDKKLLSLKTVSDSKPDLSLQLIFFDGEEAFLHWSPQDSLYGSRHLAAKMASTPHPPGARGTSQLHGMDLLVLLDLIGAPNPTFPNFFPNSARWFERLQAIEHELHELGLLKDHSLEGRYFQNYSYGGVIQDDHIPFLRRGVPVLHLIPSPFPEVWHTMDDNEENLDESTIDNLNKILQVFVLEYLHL
# Protocol: After scale-up, expression and lysis, protein was purified by Ni-NTA IMAC, dialysed in the presence of Factor Xa, further purified by Ni-NTA reverse IMAC and finally filtrated for size on a Superdex 200 16/60 column. Final protein was concentrated using a spin concentrator at 10 kDa molecular weight cut-off and formulated in 150 mM NaCl, 50 mM Tris-HCl, 50% Glycerol, pH 8.0.
# Pyroglutamylation was measured by conversion of glutamine-4-amino-7-methylcoumarine (H-Gln-AMC, Bachem) to pyroglutamyl-AMC, which is subsequently a specific substrate for pyroglutamylaminopeptidase (pGAPase, Qiagen), releasing free AMC which can be fluorescently detected. For a typical inhibition assay, 7.5 µL aliquots of threefold dilutions of test compound in 50 mM Tris pH8 buffer were plated in 384-well plates. 15 µL 20 µM h-Gln-AMC (diluted from a 40 mM stock dissolved in 25 mM HEPES using 50 mM Tris-HCl pH 8.0) was added to each well. Finally, 7.5 µL, 3 ng/µL recombinant QC enzyme was added and the reaction mixture was incubated for 1 hour at 37°C. A 5 minute incubation at 98°C was then performed to denature the QC enzyme and stop the reaction.
# 25 µL of the pyroglutamylation reaction mixture was transferred into an empty plate and to that, 25 µL of the pGAPase enzyme solution was added. Plates were then incubated for 25 minutes at room temperature before fluorescence readings were taken on an Envision2 plate reader with excitation set at 380 nm and emission at 450 nm.
# Controls were taken along containing pyroglutamylated-AMC (Bachem, dissolved at 10 mM in DMSO) instead of H-Gln-AMC to control for pGAPase inhibition.
# IC50 values are calculated using non-linear regression analysis with GraphPad Prism software.
SMILES,CLint scaled at 1 µM [1] [mL/min/kg],IC50 [2] [nM],solubility at 24 h [3] [µM],CLint scaled at 1 µM [4] [mL/min/kg],IC50 [5] [nM],"IC50 ([2]; Homo sapiens, KBM-7, 72 h) [nM]"
"O=C1OCC(c2ccc(N3CCCC3)cc2)N1c1ccc2[nH]cnc2c1 (single isomer, unassigned) [(18)-ent2]",32.8,3490,60,1070,31.2,
O=C1OC[C@H](c2ccc(-c3cnn(C(F)(F)F)c3)cc2F)N1c1ccc2[nH]cnc2c1 [Compound (1)],,,121,,10.3,92.1
"O=C1OCC(c2ccc(C3CCC(F)(F)CC3)cc2)N1c1ccc2[nH]cnc2c1 (single isomer, unassigned) [(19)-ent2]",21.8,3730,42,49.9,,
